# Laboratory results: patent US20070049564A1 (Wyeth, priority 2005, published 2007)
# Read-outs that look alike come from different tables or passages of the source.
# Experiments:
# Assay in all cases: MIC, broth microdilution
# E. coli GC 2236 = settings: Escherichia coli
# E. coli GC 2232 = settings: Escherichia coli
# E. coli GC 2234 = settings: Escherichia coli
# E. coli GC 2271 = settings: Escherichia coli
# E. coli GC 2272 = settings: Escherichia coli
# E. coli GC 4559 = settings: Escherichia coli
# E. coli GC 3226 = settings: Escherichia coli
# E. coli GC 2203 = settings: Escherichia coli
# P. aeruginosa GC 2214 = settings: Pseudomonas aeruginosa
# S. aureus GC 1131 = settings: Staphylococcus aureus
# Protocol: Antimicrobial susceptibility testing. The in vitro activities of the antibiotics are determined by the broth microdilution method as recommended by the National Committee for Clinical Laboratory Standards (NCCLS) (1). Mueller-Hinton II broth (MHBII)(BBL Cockeysville, Md.) is the medium employed in the testing procedures. Microtiter plates containing serial dilutions of each antimicrobial agent are inoculated with each organism to yield the appropriate density (10^5 CFU/ml) in a 100 μl final volume. The plates are incubated for 18-22 hours at 35° C. in ambient air.
# Representative compounds were first incubated in mouse serum for an hour prior to the in vitro testing against a panel of selected gram-positive and gram-negative bacteria strains. All compounds were also pre-incubated in water for an hour prior to testing as control.
# S. aureus GC 6335 = settings: Staphylococcus aureus
# S. epidermidis GC 4935 = settings: Staphylococcus epidermidis
# E. faecalis GC 4555 = settings: Enterococcus faecalis
# E. faecalis GC 2265 = settings: Enterococcus faecalis
# E. faecalis GC 2267 = settings: Enterococcus faecalis
# S. pneumoniae* GC 4465 = settings: Streptococcus pneumoniae
# S. pneumoniae+ GC 4465 = settings: Streptococcus pneumoniae
# S. pyogenes GC 4563 = settings: Streptococcus pyogenes
# S. agalactiae GC 4564 = settings: Streptococcus agalactiae
# [1] = read-out: MINIMAL INHIBITORY CONCENTRATION MIC, Human Serum
# [2] = read-out: MINIMAL INHIBITORY CONCENTRATION MIC, Mouse Serum
# [3] = read-out: MINIMAL INHIBITORY CONCENTRATION MIC, Water
smiles,measurement,setting,value
Cc1cc(C)cc(C(=O)OCOC(=O)N(CC(=O)Nc2cc(N(C)C)c3c(c2O)C(=O)C2=C(O)[C@]4(O)C(=O)C(C(N)=O)=C(O)[C@@H](N(C)C)[C@@H]4C[C@@H]2C3)C(C)(C)C)c1 [Example 51],MIC,"E. coli GC 2236; GC2236, read-out: MINIMAL INHIBITORY CONCENTRATION MIC, Human Serum",32 µg/mL
same,MIC,"E. coli GC 2236; GC2236, read-out: MINIMAL INHIBITORY CONCENTRATION MIC, Mouse Serum",2 µg/mL
same,MIC,"E. coli GC 2236; GC2236, read-out: MINIMAL INHIBITORY CONCENTRATION MIC, Water",> 64 µg/mL
same,MIC,"E. coli GC 2232; GC2232, read-out: MINIMAL INHIBITORY CONCENTRATION MIC, Human Serum",32 µg/mL
same,MIC,"E. coli GC 2232; GC2232, read-out: MINIMAL INHIBITORY CONCENTRATION MIC, Mouse Serum",2 µg/mL
same,MIC,"E. coli GC 2232; GC2232, read-out: MINIMAL INHIBITORY CONCENTRATION MIC, Water",> 64 µg/mL
same,MIC,"E. coli GC 2234; GC2234, read-out: MINIMAL INHIBITORY CONCENTRATION MIC, Human Serum",32 µg/mL
same,MIC,"E. coli GC 2234; GC2234, read-out: MINIMAL INHIBITORY CONCENTRATION MIC, Mouse Serum",1 µg/mL
same,MIC,"E. coli GC 2234; GC2234, read-out: MINIMAL INHIBITORY CONCENTRATION MIC, Water",> 64 µg/mL
same,MIC,"E. coli GC 2271; GC2271, read-out: MINIMAL INHIBITORY CONCENTRATION MIC, Human Serum",32 µg/mL
same,MIC,"E. coli GC 2271; GC2271, read-out: MINIMAL INHIBITORY CONCENTRATION MIC, Mouse Serum",1 µg/mL
same,MIC,"E. coli GC 2271; GC2271, read-out: MINIMAL INHIBITORY CONCENTRATION MIC, Water",> 64 µg/mL
same,MIC,"E. coli GC 2272; GC2272, read-out: MINIMAL INHIBITORY CONCENTRATION MIC, Human Serum",32 µg/mL
same,MIC,"E. coli GC 2272; GC2272, read-out: MINIMAL INHIBITORY CONCENTRATION MIC, Mouse Serum",2 µg/mL
same,MIC,"E. coli GC 2272; GC2272, read-out: MINIMAL INHIBITORY CONCENTRATION MIC, Water",> 64 µg/mL
same,MIC,"E. coli GC 4559; GC4559, read-out: MINIMAL INHIBITORY CONCENTRATION MIC, Human Serum",32 µg/mL
same,MIC,"E. coli GC 4559; GC4559, read-out: MINIMAL INHIBITORY CONCENTRATION MIC, Mouse Serum",2 µg/mL
same,MIC,"E. coli GC 4559; GC4559, read-out: MINIMAL INHIBITORY CONCENTRATION MIC, Water",> 64 µg/mL
same,MIC,"E. coli GC 3226; GC3226, read-out: MINIMAL INHIBITORY CONCENTRATION MIC, Human Serum",64 µg/mL
same,MIC,"E. coli GC 3226; GC3226, read-out: MINIMAL INHIBITORY CONCENTRATION MIC, Mouse Serum",2 µg/mL
same,MIC,"E. coli GC 3226; GC3226, read-out: MINIMAL INHIBITORY CONCENTRATION MIC, Water",> 64 µg/mL
same,MIC,"E. coli GC 2203; GC2203, read-out: MINIMAL INHIBITORY CONCENTRATION MIC, Human Serum",32 µg/mL
same,MIC,"E. coli GC 2203; GC2203, read-out: MINIMAL INHIBITORY CONCENTRATION MIC, Mouse Serum",2 µg/mL
same,MIC,"E. coli GC 2203; GC2203, read-out: MINIMAL INHIBITORY CONCENTRATION MIC, Water",> 64 µg/mL
same,MIC,"P. aeruginosa GC 2214; GC2214, read-out: MINIMAL INHIBITORY CONCENTRATION MIC, Human Serum",> 64 µg/mL
same,MIC,"P. aeruginosa GC 2214; GC2214, read-out: MINIMAL INHIBITORY CONCENTRATION MIC, Mouse Serum",64 µg/mL
same,MIC,"P. aeruginosa GC 2214; GC2214, read-out: MINIMAL INHIBITORY CONCENTRATION MIC, Water",> 64 µg/mL
same,MIC,"S. aureus GC 1131; GC1131, read-out: MINIMAL INHIBITORY CONCENTRATION MIC, Human Serum",0.5 µg/mL
same,MIC,"S. aureus GC 1131; GC1131, read-out: MINIMAL INHIBITORY CONCENTRATION MIC, Mouse Serum",0.5 µg/mL
same,MIC,"S. aureus GC 1131; GC1131, read-out: MINIMAL INHIBITORY CONCENTRATION MIC, Water",1 µg/mL
same,MIC,"S. aureus GC 6335; GC6335, read-out: MINIMAL INHIBITORY CONCENTRATION MIC, Human Serum",0.5 µg/mL
same,MIC,"S. aureus GC 6335; GC6335, read-out: MINIMAL INHIBITORY CONCENTRATION MIC, Mouse Serum",0.5 µg/mL
same,MIC,"S. aureus GC 6335; GC6335, read-out: MINIMAL INHIBITORY CONCENTRATION MIC, Water",1 µg/mL
same,MIC,"S. epidermidis GC 4935; GC4935, read-out: MINIMAL INHIBITORY CONCENTRATION MIC, Human Serum",2 µg/mL
same,MIC,"S. epidermidis GC 4935; GC4935, read-out: MINIMAL INHIBITORY CONCENTRATION MIC, Mouse Serum",2 µg/mL
same,MIC,"S. epidermidis GC 4935; GC4935, read-out: MINIMAL INHIBITORY CONCENTRATION MIC, Water",4 µg/mL
same,MIC,"E. faecalis GC 4555; GC4555, read-out: MINIMAL INHIBITORY CONCENTRATION MIC, Human Serum",8 µg/mL
same,MIC,"E. faecalis GC 4555; GC4555, read-out: MINIMAL INHIBITORY CONCENTRATION MIC, Mouse Serum",1 µg/mL
same,MIC,"E. faecalis GC 4555; GC4555, read-out: MINIMAL INHIBITORY CONCENTRATION MIC, Water",16 µg/mL
same,MIC,"E. faecalis GC 2265; GC2265, read-out: MINIMAL INHIBITORY CONCENTRATION MIC, Human Serum",4 µg/mL
same,MIC,"E. faecalis GC 2265; GC2265, read-out: MINIMAL INHIBITORY CONCENTRATION MIC, Mouse Serum",1 µg/mL
same,MIC,"E. faecalis GC 2265; GC2265, read-out: MINIMAL INHIBITORY CONCENTRATION MIC, Water",8 µg/mL
same,MIC,"E. faecalis GC 2267; GC2267, read-out: MINIMAL INHIBITORY CONCENTRATION MIC, Human Serum",4 µg/mL
same,MIC,"E. faecalis GC 2267; GC2267, read-out: MINIMAL INHIBITORY CONCENTRATION MIC, Mouse Serum",2 µg/mL
same,MIC,"E. faecalis GC 2267; GC2267, read-out: MINIMAL INHIBITORY CONCENTRATION MIC, Water",16 µg/mL
same,MIC,S. pneumoniae* GC 4465; [1],2 µg/mL
same,MIC,S. pneumoniae* GC 4465; [2],0.5 µg/mL
same,MIC,S. pneumoniae* GC 4465; [3],1 µg/mL
same,MIC,S. pneumoniae+ GC 4465; [1],2 µg/mL
same,MIC,S. pneumoniae+ GC 4465; [2],1 µg/mL
same,MIC,S. pneumoniae+ GC 4465; [3],1 µg/mL
same,MIC,"S. pyogenes GC 4563; GC4563, read-out: MINIMAL INHIBITORY CONCENTRATION MIC, Human Serum",2 µg/mL
same,MIC,"S. pyogenes GC 4563; GC4563, read-out: MINIMAL INHIBITORY CONCENTRATION MIC, Mouse Serum",0.5 µg/mL
same,MIC,"S. pyogenes GC 4563; GC4563, read-out: MINIMAL INHIBITORY CONCENTRATION MIC, Water",2 µg/mL
same,MIC,"S. agalactiae GC 4564; GC4564, read-out: MINIMAL INHIBITORY CONCENTRATION MIC, Human Serum",4 µg/mL
same,MIC,"S. agalactiae GC 4564; GC4564, read-out: MINIMAL INHIBITORY CONCENTRATION MIC, Mouse Serum",1 µg/mL
same,MIC,"S. agalactiae GC 4564; GC4564, read-out: MINIMAL INHIBITORY CONCENTRATION MIC, Water",2 µg/mL
